According to PubChem BioAssay (NCI):
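1) Cells in 96-well plates. 2) Compound, 48 h, 5 concentrations. 3) Linear interpolation between surrounding doses. 4) Unreached endpoint = highest concentration. Abbreviation: GI50, concentration required for 50% inhibition of growth. Definition used: TGI = concentration required for complete inhibition of growth.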

Assays:
Assay in all cases: growth of human tumour cells (NCI), 48 h
[1] = test system: HOP-62 NSCLC
[2] = test system: SF-539 CNS
[3] = test system: UO-31 renal
[4] = test system: HCT-116 colon
[5] = test system: K-562 leukemia
[6] = test system: KM12 colon
[7] = test system: MCF7 breast
[8] = test system: SNB-75 CNS
[9] = test system: T-47D breast
[10] = test system: NCI-H23 lung

| Compound | TGI [1] [µM] | TGI [2] [µM] | TGI [3] [µM] | TGI [4] [µM] | TGI [5] [µM] | TGI [6] [µM] | TGI [7] [µM] | TGI [8] [µM] | TGI [9] [µM] | TGI [10] [µM] | GI50 [4] [µM] |
| --- | --- | --- | --- | --- | --- | --- | --- | --- | --- | --- | --- |
| N=C(N)c1ccc(N=Nc2c(O)c(C(=O)Nc3ccccc3)cc3ccccc23)cc1 | 41 | 43 | > 100 | 12.5 | > 80.4 | 29.9 | 41.7 | 52.2 | 38.2 | 76.1 | – |
| CC1(O)CC23CC(O)C4(O)C(CC(O)C4(C)C)C(C)(O)C2CCC1C3O (configuration not stated) | – | > 100 | > 100 | > 100 | > 100 | > 100 | > 100 | – | > 100 | > 100 | – |
| CC(C)(C)C(=O)C(N)C(=O)C(C)(C)C | > 100 | > 100 | > 100 | > 100 | > 100 | > 100 | > 100 | > 100 | > 100 | – | – |
| Nc1ncnc2c1ncn2CCCNO | > 100 | > 100 | > 100 | > 100 | > 100 | > 100 | > 100 | > 100 | > 100 | > 100 | – |
| Cc1cc(S(=O)(=O)NC2=NCc3c(F)cccc3N2)c(S)cc1Cl | – | > 100 | > 100 | > 100 | – | > 100 | > 100 | > 100 | > 100 | – | – |
| O=C(CCCCCCCCC(=O)N1C(=O)CC(=O)N(c2ccc(Cl)cc2)C1=S)N1C(=O)CC(=O)N(c2ccc(Cl)cc2)C1=S | > 100 | > 100 | > 100 | > 100 | > 100 | > 100 | > 100 | > 100 | > 100 | > 100 | – |
| CC(C)NC(=O)OCCN=C1c2ccccc2C(Br)C(Br)c2ccccc21 (configuration not stated) | 30 | 9.64 | 8.97 | > 58.1 | 3.62 | 45.8 | 28.2 | 39.8 | 18.4 | 53.8 | – |
| O=[N+]([O-])C(/C=C(\Cl)[N+](=O)[O-])=C(Nc1ccccc1)Nc1ccccc1 | 4.8 | 24 | 25.3 | 4.36 | > 29.5 | 24.3 | 14.6 | 14.1 | 37.3 | 23.2 | – |
| N#CC(c1cc(Cl)ncn1)c1nc2cc(C(F)(F)F)ccc2s1 (configuration not stated) | 30.9 | 20.9 | 17.8 | 8.9 | > 100 | 18.7 | – | 25.4 | > 100 | 6.97 | – |
| CC[P+](c1ccccc1)(N(C)C)N(C)C | > 100 | > 100 | > 100 | > 100 | > 100 | > 100 | > 100 | > 100 | > 100 | > 100 | – |
| C=C(CCC(=O)N(CCc1c[nH]c2ccccc12)C(=O)c1ccccc1CSCC)C(=O)OC | > 100 | > 100 | > 100 | > 100 | > 100 | > 100 | > 100 | > 100 | > 100 | > 100 | – |
| N#Cc1cc2c(n(C3OC(CO)C(O)C(O)C3O)c1=S)CCC2 (configuration not stated) | > 100 | > 100 | > 100 | > 100 | > 100 | > 100 | > 100 | > 100 | > 100 | > 100 | – |
| NCC1OC(OC2C(N)CC(N)C(O)C2OC2OC(CO)C(O)C2O)C(N)C(O)C1O (configuration not stated) | > 50 | > 100 | > 100 | > 100 | > 100 | > 100 | > 100 | > 100 | > 100 | > 100 | > 100 |
| CCCCCCCCCCCCCCCCOC[C@H](COC(c1ccccc1)(c1ccccc1)c1ccccc1)O[P+](=S)OC (some centres not stated) | – | > 100 | > 100 | > 100 | > 100 | > 100 | > 100 | > 100 | > 100 | > 100 | – |
| CC1=NN(c2cc(Cl)c(S(=O)(=O)O)cc2Cl)C2(C1)C(Cl)C(=O)N2c1nc2ccccc2s1 (configuration not stated) | – | > 100 | 76.5 | > 100 | > 100 | > 100 | > 100 | > 100 | > 100 | > 100 | – |
| CCOC(=O)c1c(-c2ccc(Cl)cc2)c(C#N)c(=S)n(C2OC(COC(C)=O)C(OC(C)=O)C(OC(C)=O)C2OC(C)=O)c1C (configuration not stated) | > 100 | > 100 | – | > 100 | > 100 | > 100 | > 100 | 99 | > 100 | > 100 | – |
| O=c1ccc(=O)c2c1c1[nH]c3ccccc3c1c1c(=O)c3ccccc3c(=O)c21 | > 10 | > 10 | > 10 | > 10 | > 10 | > 10 | – | > 10 | > 10 | > 10 | – |
| COc1ccc(C=C2C(C)=NN(c3cccc(Cl)c3)C23C(Cl)C(=O)N3c2nc3ccccc3s2)cc1 (configuration not stated) | 44.4 | > 100 | 33.4 | 28.8 | > 100 | 34.8 | 61.4 | – | > 100 | 36 | – |
| C[C@]12CC[C@H]3[C@@H](CCC4=C/C(=N/OCCN5CCCCC5)CC[C@@]43C)[C@@H]1CC[C@@H]2O | 29.1 | – | 24.7 | > 100 | 7.25 | 21.8 | 26.8 | 22.4 | > 100 | 30.4 | – |
| COc1cc2ccc(C(C)NCC#N)cc2cc1OC (configuration not stated) | > 100 | > 100 | > 100 | > 100 | > 100 | > 100 | > 100 | > 100 | > 100 | – | – |
| O=C(c1ccccc1)C1C(c2ccccc2[N+](=O)[O-])N1C1CCCCC1 (configuration not stated) | 34.1 | 4.77 | 20.3 | 8.6 | 8.06 | 25.2 | 15.9 | – | 7.57 | 37.4 | – |
| COc1ccc(Nc2nc(N)c(C(=O)c3ccco3)s2)cc1 | > 100 | 63.2 | > 70.2 | > 66.4 | > 100 | > 100 | > 100 | – | > 100 | > 100 | – |
| Cc1c(C)c2c(c(N)c1C#N)C(=O)N(NC(=S)Nc1ccccc1)C2=O | – | > 100 | > 100 | > 100 | > 100 | > 100 | > 100 | > 100 | > 100 | > 100 | – |

| Compound | TGI [1] [µM] | TGI [2] [µM] | TGI [3] [µM] | TGI [4] [µM] | TGI [5] [µM] | TGI [6] [µM] | TGI [7] [µM] | TGI [8] [µM] | TGI [9] [µM] | TGI [10] [µM] | GI50 [4] [µM] |
| --- | --- | --- | --- | --- | --- | --- | --- | --- | --- | --- | --- |
| CCn1c(-c2cc3ccccc3cc2OC(C)=O)n[nH]c1=S | > 100 | > 100 | > 100 | 41.7 | 33.1 | > 100 | > 100 | – | 43.3 | 87.9 | – |
| CN(Cc1ccccc1)C(=S)S | > 100 | – | 77.8 | 39.6 | > 100 | > 100 | > 100 | > 100 | > 100 | > 100 | – |
| COC1=C(OC)C(=O)C(Cc2c(-c3ccccc3)nc3sc(Cl)cn23)=C(C)C1=O | 38.2 | 31.6 | 30.5 | 39.9 | 52.4 | 41 | 52.4 | – | > 100 | 35.8 | – |
| COc1cc(CNc2nc3c(NC(C)=O)cc(C(F)(F)F)cc3nc2-c2ccccc2)cc(OC)c1OC | > 100 | > 100 | > 100 | > 100 | > 100 | > 100 | – | – | – | – | – |
| Cc1cc(C)n(C(C)(C(=O)Cc2ccccc2)n2nc(C)cc2C)n1 | > 100 | > 100 | > 100 | > 100 | > 100 | > 100 | > 100 | – | > 100 | > 100 | – |
| Nc1ncnc2c1ncn2C1C(O)C=C(CO)C1O (configuration not stated) | > 625 | > 625 | > 625 | > 625 | – | > 625 | > 625 | – | – | – | – |
| CCOC(=O)/C(=C/c1cn(C(C)=O)c2ccccc12)P(=O)(OC)OC | > 100 | – | – | > 100 | > 100 | – | > 100 | 60.1 | 60.5 | > 100 | – |
| CC1OC23CCCCC2C(C#N)(C#N)C1(C#N)C(=N)O3 (configuration not stated) | – | 45.1 | – | 36.2 | > 100 | 61.1 | 52.3 | > 100 | 53.6 | 52.7 | – |
| CCN(CCCl)c1cc(CN(C)C)cc(NC(=O)c2ccc(C(=O)Nc3cccc(N(CCCl)NN)c3)cc2)c1 | 10.7 | 0.56 | 1.54 | 10.1 | 0.199 | 0.329 | 0.171 | 0.775 | – | 0.626 | – |
| Cc1cc(C)c(C2=NO[C@@H]3[C@H]2C(=O)C=C2N(Cc4ccccc4)CCO[C@@]23O)c(C)c1 | > 100 | > 100 | > 100 | > 100 | > 100 | > 100 | > 100 | > 100 | – | > 100 | – |
| Clc1ccc(C2=CC(c3ccccc3)N3C(=N[C@H]4CCCC[C@@H]43)N2)cc1 (some centres not stated) | – | 19.6 | 22.9 | 11.6 | > 100 | 8.79 | 13.2 | 13.6 | 21.6 | 20.6 | – |
| CN(C)c1ccc(/C=C2\N=C(c3ccccc3)N(c3nc4ccc(Sc5ccccc5)cc4[nH]3)C2=O)cc1 | > 100 | – | > 100 | > 100 | 96.6 | > 100 | > 100 | > 100 | > 100 | > 100 | – |
| CCOC(=O)CC1(N)CC2c3ccccc3OC(=O)C2C(=O)N1 (configuration not stated) | > 100 | – | > 100 | > 100 | > 100 | > 100 | – | > 100 | > 100 | > 100 | – |
| CN(C)CCCNC(=O)N/N=C/c1ccccn1 | > 10 | > 10 | > 10 | > 10 | > 10 | > 10 | > 10 | > 10 | > 10 | – | – |
| N#Cc1nc(-c2ccsc2)oc1N | > 100 | – | > 100 | > 100 | > 100 | > 100 | > 100 | > 100 | – | – | – |
| Fc1cccc(C2ON=C(c3ccccc3)N2C23CC4CC(CC(C4)C2)C3)c1 (configuration not stated) | > 10 | > 10 | – | > 10 | > 10 | > 10 | > 10 | > 10 | > 10 | > 10 | – |
| CCOC(=O)CC1C(C(=O)OCC)=Cn2c([nH]c3cccc4cccc2c43)=C1C(=O)OCC (configuration not stated) | > 100 | – | > 100 | > 100 | > 100 | > 100 | > 100 | > 100 | > 100 | > 100 | – |
| O=c1[nH]c(NCCCCCO)nc2nc[nH]c12 | > 100 | – | > 100 | > 100 | > 100 | > 100 | – | > 100 | > 100 | > 100 | – |
| CC(C)(C)c1cc(C(C)(C)C)c2sc(=O)oc2c1O | 33.2 | 30.9 | 23.8 | 29.8 | 30.4 | 27.9 | 28 | 27.1 | 19.8 | – | – |
| CC(C)C(Nc1c2ccccc2[n+](C)c2ccccc12)C(=O)O (configuration not stated) | > 100 | > 100 | > 100 | > 100 | > 100 | > 100 | – | > 100 | – | > 100 | – |
| CC1(c2ccc(Cl)cc2)c2ccccc2C(=O)N1CCCN1C(=O)c2ccccc2C1=O (configuration not stated) | > 100 | – | > 100 | 37.6 | > 100 | 50.8 | – | > 100 | > 100 | 97.9 | – |
| Cc1cc(Br)c(O)c(-c2cscn2)c1 | 41.2 | 37.3 | 25.4 | 25.2 | 25.2 | – | – | – | – | 35.6 | – |
| COc1cc(-c2cc(OC)c(OC)c3ccc(Br)cc23)c2cc(Br)ccc2c1OC | 44.7 | 38.8 | 73.7 | 24.9 | 77.8 | – | 85.7 | – | 95.4 | 45 | – |
